According to patent US12421230B2, “Tricyclic heteroaryl compounds useful as IRAK4 inhibitors” (BRISTOL-MYERS SQUIBB COMPANY, priority 2020, dated 2025):

Experiments:
Human whole blood = test: IRAK4 Whole Blood Assay; format: cell-based; details: stimulated with TLR2 agonist lipoteichoic acid 10 μg/mL for 5 hours, IL-6 levels
Description: Human whole blood containing the anti-coagulant ACD-A was plated in 384-well plate (25 μL/well) and incubated with compounds for 60 minutes at 37° C. in a 5% CO2 incubator. The blood was stimulated with a TLR2 agonist, 10 μg/mL final concentration of lipoteichoic acid (Invivogen, San Diego, CA) in 25 μL RPMI (Gibco) for 5 hours in a 5% CO2 incubator. At the end of the incubation, plates were centrifuged at 2300 rpm for 5 minutes. Supernatants were harvested and analyzed for IL-6 levels by Flow Cytometry beads assay (BD Biosciences, San Jose, CA).

IRAK4 = biological target: T1, IRAK4 (Homo sapiens, UniProt Q9NWZ3); test: IRAK4 Inhibition Assay; format: biochemical; details: ATP 500 μM; fluoresceinated peptide 1.5 μM; IRAK4 0.6 nM; 60 min room temperature; Caliper LABCHIP
T1 sequence (Q9NWZ3 1-460): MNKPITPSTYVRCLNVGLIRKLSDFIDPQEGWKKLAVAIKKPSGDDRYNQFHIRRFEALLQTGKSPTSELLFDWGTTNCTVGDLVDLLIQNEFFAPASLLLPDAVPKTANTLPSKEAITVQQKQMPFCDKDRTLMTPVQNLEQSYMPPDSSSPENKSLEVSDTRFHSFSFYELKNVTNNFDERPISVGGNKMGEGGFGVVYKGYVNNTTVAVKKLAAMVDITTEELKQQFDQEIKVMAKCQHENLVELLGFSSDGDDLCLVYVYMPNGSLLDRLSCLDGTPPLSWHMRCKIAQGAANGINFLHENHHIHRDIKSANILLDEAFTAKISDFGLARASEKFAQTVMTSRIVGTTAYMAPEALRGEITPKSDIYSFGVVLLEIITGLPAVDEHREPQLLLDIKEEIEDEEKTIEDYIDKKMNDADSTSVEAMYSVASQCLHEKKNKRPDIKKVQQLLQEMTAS

Row | EC50 (Human whole blood) [nM] | IC50 (IRAK4) [nM] | SMILES
1 | 930 | 1.5 | CC(C)Nc1c(-c2cn(C3CCNCC3)nn2)cnc2c1[nH]c1cc(C#N)ccc12 [Example 75, 4-(isopropylamino)-3-(1-(piperidin-4-yl)-1H-1,2,3-triazol-4-yl)-5H-pyrido[3,2-b]indole-7-carbonitrile]
2 | 820 | 2.3 | CC(C)Nc1c(-c2cc(C3CCNCC3)no2)cnc2c1[nH]c1cc(C#N)ccc12 [Example 76, 4-(isopropylamino)-3-(3-(piperidin-4-yl)isoxazol-5-yl)-5H-pyrido[3,2-b]indole-7-carbonitrile]
3 | 990 | 11 | CC(C)Nc1c(-c2cc(C3CCOCC3)no2)cnc2c1[nH]c1cc(C#N)ccc12 [Example 77, 4-(isopropylamino)-3-(3-(tetrahydro-2H-pyran-4-yl)isoxazol-5-yl)-5H-pyrido[3,2-b]indole-7-carbonitrile]
4 | 3310 | 18 | CC(C)Nc1c(-c2cc(C3CCCCN3)no2)cnc2c1[nH]c1cc(C#N)ccc12 (stereo not shown) [Example 80, 4-(isopropylamino)-3-(3-(piperidin-2-yl)isoxazol-5-yl)-5H-pyrido[3,2-b]indole-7-carbonitrile]

Second part, the molecule before the results:

Row | SMILES | EC50 (Human whole blood) [nM] | IC50 (IRAK4) [nM]
5 | CC(C)Nc1c(C(=O)NCCN2CCS(=O)(=O)CC2)cnc2c1[nH]c1cc(C#N)ccc12 [Example 62, 7-cyano-N-(2-(1,1-dioxidothiomorpholino)ethyl)-4-(isopropylamino)-5H-pyrido[3,2-b]indole-3-carboxamide] | 12300 | 3.3
6 | CC(C)Nc1c(C(=O)NC2CCN(S(C)(=O)=O)CC2)cnc2c1[nH]c1cc(C#N)ccc12 [Example 63, 7-cyano-4-(isopropylamino)-N-(1-(methylsulfonyl)piperidin-4-yl)-5H-pyrido[3,2-b]indole-3-carboxamide] | > 20000 | 7.1
7 | CC(C)Nc1c(C(=O)NC[C@@H](F)C(C)(C)O)cnc2c1[nH]c1cc(-c3cncs3)ccc12 [Example 66, (R)—N-(2-fluoro-3-hydroxy-3-methylbutyl)-4-(isopropylamino)-7-(thiazol-5-yl)-5H-pyrido[3,2-b]indole-3-carboxamide] | 1240 | 8.6
8 | CC(C)Nc1c(-c2cn(CC3CC3)nn2)cnc2c1[nH]c1cc(C#N)ccc12 [Example 74, 3-(1-(cyclopropylmethyl)-1H-1,2,3-triazol-4-yl)-4-(isopropylamino)-5H-pyrido[3,2-b] indole-7-carbonitrile] | > 10000 | 9.2
